Reference: PubChem BioAssay (NCI)
Values joined by “and” are separate entries in the source; they are usually repeats but may differ in a detail not shown here. Equal entries are not always repeated.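 In this assay, cells in 96-well plates receive the compound at five concentrations for 48 hours. Endpoints are linearly interpolated between the surrounding concentrations. The concentration for 50% growth inhibition is given as GI50. TGI denotes the concentration required for complete inhibition of growth.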 Where a SMILES comes first, the peptide text is derived from it. [ ]: non-standard residue; d: D form. ξ: configuration not given here. Pentanoyl(2-O,4-OH,5-Cl) = O=C(O)C(O)CC(O)CCl; Ile(3ξ) = CCC(C)[C@H](N)C(=O)O; NMeV = CN[C@H](C(=O)O)C(C)C; NMeA = CN[C@@H](C)C(=O)O; βAla = NCCC(=O)O

Tests used:
Assay in all cases: NCI-60 cell line screen, 48 h
SR leukemia = tested on: SR leukemia
MALME-3M melanoma = tested on: MALME-3M melanoma
BT-549 breast = tested on: BT-549 breast
HCC-2998 colon = tested on: HCC-2998 colon
SK-MEL-5 melanoma = tested on: SK-MEL-5 melanoma
UO-31 renal = tested on: UO-31 renal
SK-MEL-2 melanoma = tested on: SK-MEL-2 melanoma
HS 578T breast = tested on: HS 578T breast
SF-295 CNS = tested on: SF-295 CNS
M14 melanoma = tested on: M14 melanoma

Row | Compound | GI50 (SR leukemia) [µM] | TGI (SR leukemia) [µM] | GI50 (MALME-3M melanoma) [µM] | TGI (MALME-3M melanoma) [µM] | GI50 (BT-549 breast) [µM] | TGI (BT-549 breast) [µM] | GI50 (HCC-2998 colon) [µM] | TGI (HCC-2998 colon) [µM] | GI50 (SK-MEL-5 melanoma) [µM] | TGI (SK-MEL-5 melanoma) [µM] | GI50 (UO-31 renal) [µM] | TGI (UO-31 renal) | GI50 (SK-MEL-2 melanoma) [µM] | TGI (SK-MEL-2 melanoma) | GI50 (HS 578T breast) [µM] | TGI (HS 578T breast) [µM] | GI50 (SF-295 CNS) [µM] | TGI (SF-295 CNS) [µM] | GI50 (M14 melanoma) [µM] | TGI (M14 melanoma)
1 | C=CCn1c(SCC(=O)Nc2ccc(C(=O)/C=C/c3cc(OC)c(OC)c(OC)c3)cc2)nnc1-c1cc(OC)c(OC)c(OC)c1 | 2.34 | > 100 | 11.1 | 64.4 | 2.14 | 6.25 | 2.05 | 4.48 | 4.27 | 16 | 4.18 | 17.5 µM | 14.8 | 45.3 µM | 4.66 | > 100 | 5.25 | > 100 | 2.96 | 11.8 µM
2 | CCCCCCCCCCCC1=NC(C)(C)CN1C(C)C | 1.71 | 4.32 | 1.92 | 4.32 | 9.22 | 23.4 | 1.71 | 3.27 | 2.05 | 4.34 | 2.75 | 12.5 µM | 3.2 | 10 µM | 2.81 | 13.1 | 3.05 | 10.7 | 1.89 | 3.57 µM
3 | CCn1c(-c2nonc2N)nc2cnc(Oc3cccc(NC(=O)c4ccc(OCCN5CCOCC5)cc4)c3)cc21 | 0.886 | > 25 | 4.14 | > 25 | 0.438 | 15.3 | 15.2 | > 25 | 3.18 | > 22 | 0.0089 | 5.07 µM | 7.54 | > 25 µM | 0.0149 | 8.26 | 0.974 | > 16.9 | 12.7 | > 25 µM
4 | COc1cccc2c1C(=O)c1c(O)c3c(c(O)c1C2=O)C[C@@](O)(/C(C)=N/NC(=O)c1cccc([N+](=O)[O-])c1)C[C@@H]3OC1CC(N)C(O)C(C)O1 (some centres not stated) | 0.0155 | – | – | – | 0.714 | 4.43 | 0.326 | 2.77 | 0.113 | 0.361 | 0.882 | > 22 µM | 0.996 | 3.23 µM | 0.561 | 5.5 | 0.187 | 0.997 | 0.324 | 1.51 µM
5 | COc1cccc(C2CC(C)(O)Oc3cc4c(cc32)OCO4)c1 (configuration not stated) | – | 23.8 | – | > 100 | – | > 100 | – | > 100 | – | > 100 | – | 72.2 µM | – | 43.6 µM | – | 49.6 | – | 95.7 | – | > 100 µM
6 | COc1ccc2c(c1)c(-c1ccc(-c3cn(C)c4ccc(OC)cc34)s1)cn2C | > 100 | > 100 | > 100 | > 100 | > 100 | > 100 | > 100 | > 100 | > 100 | > 100 | > 100 | > 100 µM | > 100 | > 100 µM | > 100 | > 100 | > 100 | > 100 | > 100 | > 100 µM
7 | C=CC(=O)N1CCN([C@@H](CC2CC2)c2ccc([C@H](C)Nc3ncc4c(n3)N(CC)C(=O)OC4)cc2)CC1 | 4.05 | 22.7 | 15.9 | 30.8 | 4.7 | 16.6 | 13 | 28 | 15.4 | 30 | 10.8 | 26.3 µM | 12.6 | 27.4 µM | 9.19 | 55.6 | 13 | 26.3 | 15.5 | 30.1 µM
8 | COc1ccc2c(c1[N+](=O)[O-])CC[C@@H]1[C@@H]2CC[C@]2(C)C(=O)CC[C@@H]12 | > 25 | > 1000 | > 748 | – | 470 | > 1000 | > 25 | > 1000 | 502 | > 1000 | > 824 | > 1000 µM | 275 | – | 119 | – | 342 | > 968 | > 562 | > 562 µM
9 | Cc1cc[c]([Sb]2[O]C(CO)C(C(O)C(O)C(=O)O)[O]2)cc1 (configuration not stated) | 47.2 | > 100 | > 100 | > 100 | > 100 | > 100 | – | – | > 100 | > 100 | > 100 | > 100 µM | 21.4 | 45.5 µM | 87.7 | > 100 | 61.1 | > 100 | 90 | > 100 µM
10 | CCC(C)[C@@H]1NC(=O)[C@@H]2CCCN2C(=O)C(CC(O)CCl)OC(=O)CCNC(=O)[C@H](C)N(C)C(=O)[C@H](C(C)C)N(C)C1=O (some centres not stated) (cyclo([Ile(3ξ)][NMeV][NMeA][βAla][Pentanoyl(2-O,4-OH,5-Cl)]P)) | – | > 100 | – | > 100 | – | > 100 | – | – | – | 2.29 | – | > 100 µM | – | 1.89 µM | – | > 100 | – | 70.4 | – | 3.09 µM
11 | O=c1cc(-c2cccc(Cl)c2)[nH]c2cc3c(cc12)OCO3 | – | 54.7 | 0.31 | – | – | 17.1 | – | 4.97 | 0.164 | – | 0.743 | 75 µM and > 100 µM | – | 0.582 µM and 0.72 µM | – | 1.74 | – | – | 0.248 | 75 µM and 13.9 µM
12 | CCOC(=O)c1sc2nc(=S)[nH]c(NC(N)=S)c2c1C | 20.9 | 64.7 | 37 | 72.1 | 12.6 | 41 | – | – | 16.8 | 31.7 | 20.3 | 61.7 µM | 46.7 | > 100 µM | 26 | 59.7 | 24.4 | 65.8 | 26.5 | 64.6 µM
13 | CN1CCN(c2cc(F)c(NC3=C(Cl)C(=O)c4ncccc4C3=O)c(F)c2)CC1 | – | – | 1.65 | 3.12 | 1.63 | 3.06 | 1.84 | 3.55 | 1.66 | 3.13 | 1.39 | 2.72 µM | 1.77 | 3.6 µM | 2.02 | 5.67 | 1.68 | 3.23 | 1.82 | 3.39 µM
14 | COc1cc(OC)c(OC)cc1/C=C/c1ccccn1 | – | – | – | > 10 | – | > 10 | – | > 10 | – | > 10 | – | > 10 µM | – | > 10 µM | – | > 10 | – | > 10 | – | > 10 µM
